One assay has as its system primary human endothelial cells expressing luciferase under the control of the KLF2 promoter. The experiment in a line: KLF2 Induction Cell Based Bioassay (luciferase reporter). Particulars: Homo sapiens, Endothelial cell, 24 h, KLF2 promoter luciferase, 24 hours, 11-point concentration response; read-out: Activity Range (EC50). An excerpt: In endothelial cell culture media, a stock of the highest working concentration was made at no more than 1% DMSO vehicle. The working stock was then serially diluted 1:2 to make an 11-point concentration response curve. Included in the 96-well plate were 2 reference compounds with known potencies. A DMSO column was included in the 96-well plate at the highest percent vehicle of the working stocks. The 96-well cell culture plate of primary human endothelial cells expressing luciferase under the control of the KLF2 promoter was dosed with 200 μL per well of the dilution series as well as the DMSO control column. The assay plate was incubated at 37° C. for 24 hours. The supernatant was collected at 24 hours.
20 μL of the supernatant was then placed in a 384-well plate with optical duplicates. The corners of the plate received 20 μL of the Gaussia Luciferase Enzyme positive control, as well as 20 μL of the 50 μM Coelenterizine substrate. The plate read is then calibrated using the control, and read using a Molecular Devices SpectraMax iD5, providing luminescence in relative light units (RLU). The plate reader injected 20 μL of the 50 μM Coelenterizine substrate immediately before taking the RLU measurement for each well.
The sample signals were then normalized to the average signal of the DMSO column, as well as to the maximum signal of one of the reference compounds, as shown in the equations below: […]
The EC50 of each compound is then defined as when the concentration response curve passes 0.5.
Background: Reporter assays use an easily measured gene product as a stand-in for the process of interest.
As to `COc1cc(F)ccc1CNC(=O)C1(C)COc2c(oc3cc(C(=O)NC4(C)COC4)ccc23)C(=O)N1CC1CC1` (stereo not shown) [Example 59], the EC50 was 51 to 500 nM.
Same read-out and setting: for `COCCN1C(=O)c2oc3cc(C(=O)NC4CCC4)ccc3c2OCC1(C)C(=O)NCc1c(OC)ccc(F)c1F` (stereo not shown) [Example 61] the value was 51 to 500 nM; for `COCCN1C(=O)c2oc3cc(C(=O)NC4(C)COC4)ccc3c2OCC1(C)C(=O)NCc1c(C#N)cccc1OC` (stereo not shown) [Example 62], 51 to 500 nM.
Regarding `COCCN1C(=O)c2oc3cc(C(=O)NC4(C)COC4)ccc3c2OCC1(C)C(=O)NCc1c(OC)ccc(F)c1F` (stereo not shown) [Example 63], the EC50 is 51 to 500 nM.
`COCCN1C(=O)c2oc3cc(C(=O)NC4(C)COC4)ccc3c2OCC1(C)C(=O)NCc1c(Cl)cccc1OC` (stereo not shown) [Example 64]: the EC50 lay in the range of 51 to 500 nM.
In the case of `COc1cccc(C#N)c1CNC(=O)C1(C)COc2c(oc3cc(C(=O)NC4(C)COC4)ccc23)C(=O)N1CC1CC1` (stereo not shown) [Example 65], the EC50 was in the range of 51 to 500 nM.
Take `COCCN1C(=O)c2oc3cc(C(=O)NC4(C)COC4)ccc3c2OCC1(C)C(=O)NCc1ncccc1OC` (stereo not shown) [Example 66]: the EC50 lay in the range of 501 to 5000 nM.
The same measure, in the same setting: then `COc1cccc(C#N)c1CNC(=O)C1(C)COc2c(oc3cc(C(=O)NC4CCC4)ccc23)C(=O)N1CC1CC1` (stereo not shown) [Example 67], with 51 to 500 nM.
Same read-out and setting: for `COc1cccc(F)c1CNC(=O)C1(C)COc2c(oc3cc(C(=O)NC4(C)COC4)ccc23)C(=O)N1[C@H]1C[C@@H](OC)C1` (stereo partly shown) [Example 68] the value was 51 to 500 nM; for `COc1cc(F)ccc1CNC(=O)C1(C)COc2c(oc3cc(C(=O)NC4(C)COC4)ccc23)C(=O)N1[C@H]1C[C@@H](OC)C1` (stereo partly shown) [Example 69], 51 to 500 nM; for `COc1ccc(F)cc1CNC(=O)C1(C)COc2c(oc3cc(C(=O)NC4(C)COC4)ccc23)C(=O)N1[C@H]1C[C@@H](OC)C1` (stereo partly shown) [Example 70], 51 to 500 nM.
On the same count and under the same terms, for `COc1cc(F)ccc1CNC(=O)C1(C)COc2c(oc3cc(C(=O)NC4CCC4)ccc23)C(=O)N1[C@H]1C[C@@H](OC)C1` (stereo partly shown) [Example 71] the value was 51 to 500 nM; for `COc1cc(F)ccc1CNC(=O)C1(C)COc2c(oc3cc(C(=O)NC4CCC4)ccc23)C(=O)N1CC1CC1` (stereo not shown) [Example 72], 51 to 500 nM.
In the case of `COc1ccc(F)cc1CNC(=O)C1(C)COc2c(oc3cc(C(=O)NC4CCC4)ccc23)C(=O)N1[C@H]1C[C@@H](OC)C1` (stereo partly shown) [Example 73], the EC50 is 51 to 500 nM.
Still for that read-out and setting: for `COCCN1C(=O)c2oc3cc(C(=O)NC4(C)COC4)ccc3c2OCC1(C)C(=O)NCc1cc(F)ccc1OC` (stereo not shown) [Example 74] the value was 501 to 5000 nM; for `COCCN1C(=O)c2oc3cc(C(=O)NC4CCC4)ccc3c2OCC1(C)C(=O)NCc1cc(F)ccc1OC` (stereo not shown) [Example 75], 51 to 500 nM; for `COCCN1C(=O)c2oc3cc(C(=O)NC4(C)COC4)ccc3c2OCC1(C)C(=O)NCc1ccc(F)cc1OC` (stereo not shown) [Example 76], 51 to 500 nM.
The same measure, in the same setting: for `COCCN1C(=O)c2oc3cc(C(=O)NC4CCC4)ccc3c2OCC1(C)C(=O)NCc1ccc(F)cc1OC` (stereo not shown) [Example 77] the value was 51 to 500 nM; for `COc1cccnc1CNC(=O)C1(C)COc2c(oc3cc(C(=O)NC4(C)COC4)ccc23)C(=O)N1[C@H]1C[C@@H](OC)C1` (stereo partly shown) [Example 78], 51 to 500 nM; for `COCCN1C(=O)c2oc3cc(C(=O)NC4(C)COC4)ccc3c2OC[C@]1(C)C(=O)NCc1c(F)cccc1OC` [Example 79], 51 to 500 nM.
On the same count and under the same terms, for `COc1ccc(F)cc1CNC(=O)C1(C)COc2c(oc3cc(C(=O)NC4CCC4)ccc23)C(=O)N1[C@H]1C[C@H](OC)C1` (stereo partly shown) [Example 80] the value was 501 to 5000 nM; for `COc1ccc(F)c(F)c1CNC(=O)C1(C)COc2c(oc3cc(C(=O)NC4CCC4)ccc23)C(=O)N1[C@H]1C[C@@H](OC)C1` (stereo partly shown) [Example 82], 51 to 500 nM.
As for `COc1ccc(F)c(F)c1CNC(=O)C1(C)COc2c(oc3cc(C(=O)NC4(C)COC4)ccc23)C(=O)N1[C@H]1C[C@@H](OC)C1` (stereo partly shown) [Example 83], the EC50 was in the range of 51 to 500 nM.
The same measure, in the same setting: then `COc1cccc(Cl)c1CNC(=O)C1(C)COc2c(oc3cc(C(=O)NC4CCC4)ccc23)C(=O)N1[C@H]1C[C@@H](OC)C1` (stereo partly shown) [Example 84], with at most 50 nM; and `COc1cccc(Cl)c1CNC(=O)C1(C)COc2c(oc3cc(C(=O)NC4(C)COC4)ccc23)C(=O)N1[C@H]1C[C@@H](OC)C1` (stereo partly shown) [Example 85], with at most 50 nM; and `COc1cccc(Cl)c1CNC(=O)C1(C)COc2c(oc3cc(C(=O)NC4(C)COC4)ccc23)C(=O)N1CC1CC1` (stereo not shown) [Example 86], with at most 50 nM.
Same read-out and setting: for `COc1cccc(Cl)c1CNC(=O)C1(C)COc2c(oc3cc(C(=O)NC4CCC4)ccc23)C(=O)N1CC1CC1` (stereo not shown) [Example 87] the value was at most 50 nM; for `COCCN1C(=O)c2oc3cc(C(=O)NC4CCC4)ccc3c2OCC1(C)C(=O)NCc1c(Cl)cccc1OC` (stereo not shown) [Example 88], at most 50 nM.
On the same count and under the same terms, then `COc1cccc(F)c1CNC(=O)C1(C)COc2c(oc3cc(C(=O)NC4(C)COC4)ccc23)C(=O)N1CC1CC1` (stereo not shown) [Example 89], with at most 50 nM.
Turning to `COCCN1C(=O)c2oc3cc(C(=O)NC4CCC4)ccc3c2OCC1(C)C(=O)NCc1c(C#N)cccc1OC` (stereo not shown) [Example 90], the EC50 is at most 50 nM.
For `COc1cccc(F)c1CNC(=O)C1(C)COc2c(oc3cc(C(=O)NC4CCC4)ccc23)C(=O)N1[C@H]1C[C@@H](OC)C1` (stereo partly shown) [Example 91], the EC50 was at most 50 nM.
`COc1ccc(F)cc1CNC(=O)C1(C)COc2c(oc3cc(C(=O)NC4CCC4)ccc23)C(=O)N1CC1CC1` (stereo not shown) [Example 92]: the EC50 is at most 50 nM.
As to `COc1cccc(F)c1CNC(=O)C1(C)COc2c(oc3cc(C(=O)NC4CCC4)ccc23)C(=O)N1CC1CC1` (stereo not shown) [Example 93], the EC50 was at most 50 nM.
For the molecule `COCCN1C(=O)c2oc3cc(C(=O)NC4CCC4)ccc3c2OC[C@]1(C)C(=O)NCc1c(F)cccc1OC` [Example 94], the EC50 was at most 50 nM.
Same read-out and setting: then `COCCN1C(=O)c2oc3cc(C)ccc3c2OCC1(C)C(=O)NCc1ccccc1OC` (stereo not shown) [Example 95, N-(2-methoxybenzyl)-4-(2-methoxyethyl)-3,8-dimethyl-5-oxo-2,3,4,5-tetrahydrobenzofuro[2,3-f][1,4]oxazepine-3-carboxamide], with 501 to 5000 nM.
Same read-out and setting: for `C=C(C)c1ccc2c3c(oc2c1)C(=O)N(CCOC)C(C)(C(=O)NCc1ccccc1OC)CO3` (stereo not shown) [Example 96] the value was 501 to 5000 nM; for `COCCN1C(=O)c2oc3cc(C4CC4)ccc3c2OCC1(C)C(=O)NCc1ccccc1OC` (stereo not shown) [Example 97], 501 to 5000 nM.
Regarding `COCCN1C(=O)c2oc3cc(-c4cscn4)ccc3c2OCC1(C)C(=O)NCc1ccccc1OC` (stereo not shown) [Example 99], the EC50 lay within 501 to 5000 nM.
As to `COCCN1C(=O)c2oc3cc(-c4cncs4)ccc3c2OCC1(C)C(=O)NCc1ccccc1OC` (stereo not shown) [Example 100], the EC50 lay within 51 to 500 nM.
In the case of `COCCN1C(=O)c2oc3cc(-c4nccs4)ccc3c2OCC1(C)C(=O)NCc1ccccc1OC` (stereo not shown) [Example 101], the EC50 is 51 to 500 nM.
As for `[2H]C([2H])([2H])N(C(=O)CN1C(=O)c2oc3ccc(Cl)cc3c2OC[C@]1(C)C(=O)NCc1c(F)cccc1OC)C([2H])([2H])[2H]` [Example 102, (R)-4-(2-(bis(methyl-d3)amino)-2-oxoethyl)-9-chloro-N-(2-fluoro-6-methoxybenzyl)-3-methyl-5-oxo-2,3,4,5-tetrahydrobenzofuro[2,3-f][1,4]oxazepine-3-carboxamide], the EC50 is 51 to 500 nM.
Same read-out and setting: then `[2H]C([2H])([2H])N(C(=O)CN1C(=O)c2oc3ccc(Cl)cc3c2OC[C@]1(C)C(=O)NCc1ncccc1OC)C([2H])([2H])[2H]` [Example 103], with 51 to 500 nM.
In the case of `COc1cccnc1CNC(=O)[C@@]1(C)COc2c(oc3ccc(Cl)cc23)C(=O)N1CC(=O)N1CC(O)C1` [Example 104], the EC50 lay within 51 to 500 nM.
`COc1cccc(F)c1CNC(=O)[C@@]1(C)COc2c(oc3ccc(Cl)cc23)C(=O)N1CC(=O)N1CC(O)C1` [Example 105]: the EC50 lay in the range of 51 to 500 nM.
The same measure, in the same setting: for `[2H]C([2H])([2H])N(C(=O)CN1C(=O)c2oc3ccc(Cl)cc3c2OCC1(C)C(=O)NCc1ncccc1OCC)C([2H])([2H])[2H]` (stereo not shown) [Example 109, 4-(2-(bis(methyl-d3)amino)-2-oxoethyl)-9-chloro-N-((3-ethoxypyridin-2-yl)methyl)-3-methyl-5-oxo-2,3,4,5-tetrahydrobenzofuro[2,3-f][1,4]oxazepine-3-carboxamide] the value was 51 to 500 nM; for `[2H]C([2H])([2H])N(C(=O)CN1C(=O)c2oc3ccc(Cl)cc3c2OCC1(C)C(=O)NCc1ncccc1OC(C)C)C([2H])([2H])[2H]` (stereo not shown) [Example 110], 501 to 5000 nM.

Still in this assay, the particulars now being: Homo sapiens, Endothelial cell, Bioactivity of stereoisomers: R isomer; read-out: Bioactivity Bucket, R.
Regarding `COCCN1C(=O)c2oc3cc(C(=O)NC4(C)COC4)ccc3c2OC[C@]1(C)C(=O)NCc1c(F)cccc1OC` [Example 79], the EC50 was in the range of 51 to 500 nM.
The same measure, in the same setting: for `[2H]C([2H])([2H])N(C(=O)CN1C(=O)c2oc3ccc(Cl)cc3c2OC[C@]1(C)C(=O)NCc1c(F)cccc1OC)C([2H])([2H])[2H]` [Example 102, (R)-4-(2-(bis(methyl-d3)amino)-2-oxoethyl)-9-chloro-N-(2-fluoro-6-methoxybenzyl)-3-methyl-5-oxo-2,3,4,5-tetrahydrobenzofuro[2,3-f][1,4]oxazepine-3-carboxamide] the value was 51 to 500 nM.

The assay is the same for the next values; noted with them: KLF2 promoter luciferase, 24 hours, 11-point concentration response; read-out: Activity Range (EC50).
On to `COc1cccc(F)c1CNC(=O)C1(C)COc2c(oc3ccc(Cl)cc23)C(=O)N1Cc1ncnn1C` (stereo not shown) [Example 108, 9-chloro-N-(2-fluoro-6-methoxybenzyl)-3-methyl-4-((1-methyl-11H-1,2,4-triazol-5-yl)methyl)-5-oxo-2,3,4,5-tetrahydrobenzofuro[2,3-f][1,4]oxazepine-3-carboxamide], for which the EC50 was in the range of 51 to 500 nM.

Source of the values: US20250171460A1, “INDUCERS OF KLF2 AND METHODS OF USE THEREOF” (Riparian Pharmaceuticals, Inc., priority 2022, published 2025).
